Measured values from patent publication EP1229027A1 (priority 1996, dated 1998).

How the values were obtained:
Pythium ultimum = experiment: Fungitoxicity against Pythium ultimum (mycelial dry weight growth in liquid asparagine-sucrose broth); assay type: cell-based; details: Globisporangium ultimum; 100 ppm of the compound; 48 hours at 25 °C; increase in mycelial dry weight compared to controls
Procedure: Compounds were tested for fungitoxicity against Pythium ultimum according to the procedures set forth below.
Test compounds were dissolved in dimethylsulfoxide at 20 mg/ml and 0.1 ml was added to 19.9 ml of a liquid asparagine-sucrose broth, prepared according to the method described in Erwin, D.C., and Katznelson, K., Canadian Journal of Microbiology 7, 15 (1971), in 9 cm petri dishes to give a concentration of 100 ppm of the compound. Each plate was inoculated with a mycelial plug, 7 mm in diameter, taken from the growing edge of a culture of Pythium ultimum grown on potato dextrose agar. Two replicate plates were used for each treatment. After growth for 48 hours at 25 °C with shaking on a gyrotary shaker at 60 rpm, the increase in mycelial dry weight was determined. Fungitoxicity was recorded as percent inhibition of growth as compared to controls lacking the test compounds. 2.

Plasmopara viticola = details: in vivo
Phytophthora infestans = assay type: in vivo; details: Rate 300 ppm; tomato seedlings; evaluated 6 days after inoculation

Row | Structure (SMILES) | inhibition at 100 ppm (Pythium ultimum) | GDM (percent disease control) (Plasmopara viticola) | TLB (percent disease control) (Phytophthora infestans)
1 | CCC(C)(NC(=O)c1ccc2c(c1)NC(=O)CO2)C(=O)C(Cl)Cl (stereo not shown) [Compound 13, N-(3,3-dichloro-1-ethyl-1-methyl-2-oxopropyl)-1,4-benzoxazine-3-one-6-carboxamide] | 60.8% |  | 
2 | CCC(C)(NC(=O)c1ccc2c(c1)NC(=O)CO2)C(=O)CCl (stereo not shown) [Compound 11, N-(3-chloro-1-ethyl-1-methyl-2-oxopropyl)-1,4-benzoxazine-3-one-6-carboxamide] | 34.3% | 0% | 95%
3 | CCC(C)(NC(=O)c1ccc2nc(C)oc2c1)C(=O)CCl (stereo not shown) [Compound 2, N-(3-chloro-1-ethyl-1-methyl-2-oxopropyl)-2-methylbenzoxazole-6-carboxamide] | 92.2% | 100% | 90%
